Results from ChEMBL document CHEMBL1154395, “Modulations of the amide function of the preferential dopamine D3 agonist (R,R)-S32504: improvements of affinity and selectivity for D3 versus D2 receptors” (Bioorg Med Chem Lett, 2009).

Key:
D(3) dopamine receptor [1] = target: T1, D(3) dopamine receptor (Homo sapiens, UniProt P35462); test: Displacement of [3H]spiperone form human cloned dopamine D3 receptor expressed in CHO cells; type: cell-based
D(2) dopamine receptor = D(2) dopamine receptor (Homo sapiens, UniProt P14416); test: Displacement of [3H]spiperone form human cloned dopamine D2L receptor expressed in CHO cells; type: cell-based
Homo sapiens = organism: Homo sapiens; test: Selectivity ratio of Ki for human dopamine D2 receptor to Ki for human dopamine D3 receptor
D(3) dopamine receptor [2] = target: T1, D(3) dopamine receptor; test: Activation of human dopamine D3 receptor expressed in CHO cells assessed as [35S]GTPgammaS binding by scintillation proximity assay; type: functional, cell-based

D(2) dopamine receptor, sequence (P14416 whole entry): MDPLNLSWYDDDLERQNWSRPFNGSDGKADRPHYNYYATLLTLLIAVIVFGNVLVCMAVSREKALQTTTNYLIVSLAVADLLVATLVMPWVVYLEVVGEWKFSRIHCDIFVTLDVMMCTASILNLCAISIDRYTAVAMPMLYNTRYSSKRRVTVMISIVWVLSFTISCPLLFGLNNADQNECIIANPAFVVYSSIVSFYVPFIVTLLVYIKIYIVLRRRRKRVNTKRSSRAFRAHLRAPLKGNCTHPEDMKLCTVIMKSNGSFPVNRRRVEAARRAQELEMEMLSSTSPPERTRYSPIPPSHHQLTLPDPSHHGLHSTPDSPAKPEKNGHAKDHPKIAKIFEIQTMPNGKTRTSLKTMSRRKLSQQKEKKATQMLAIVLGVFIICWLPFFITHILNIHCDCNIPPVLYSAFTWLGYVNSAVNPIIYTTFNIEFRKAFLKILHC
T1 sequence (P35462 whole entry): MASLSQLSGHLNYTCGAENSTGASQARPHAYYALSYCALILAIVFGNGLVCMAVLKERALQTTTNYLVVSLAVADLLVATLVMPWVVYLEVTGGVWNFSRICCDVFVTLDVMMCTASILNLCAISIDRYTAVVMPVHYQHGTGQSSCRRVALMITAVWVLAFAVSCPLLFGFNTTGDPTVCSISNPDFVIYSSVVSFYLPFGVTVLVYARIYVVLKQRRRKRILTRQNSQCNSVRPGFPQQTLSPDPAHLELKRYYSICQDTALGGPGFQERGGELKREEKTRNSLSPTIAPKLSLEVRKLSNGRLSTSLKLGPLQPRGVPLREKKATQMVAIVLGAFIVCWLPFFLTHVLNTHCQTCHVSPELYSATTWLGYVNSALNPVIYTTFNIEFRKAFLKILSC

For `CCCN1CCO[C@@H]2c3cc(C(=O)OC)ccc3CC[C@H]21`, the Ki (D(3) dopamine receptor [1]) was over 10000 nM and the Ki (D(2) dopamine receptor) was over 1000 nM.

With `CCCN1CCO[C@H]2c3cc(C(N)=O)ccc3CC[C@@H]21` the Ki (D(3) dopamine receptor [1]) was 2450 nM and the Ki (D(2) dopamine receptor) was over 10000 nM.

`CCCN1CCO[C@@H]2c3cc4c(cc3CC[C@H]21)CCOC4=O` showed a Ki (D(3) dopamine receptor [1]) of 120 nM, a Ratio Ki (Homo sapiens) of 12.5 and a Ki (D(2) dopamine receptor) of 1480 nM.

For `CCCN1CCO[C@@H]2c3cc(C(=O)O)ccc3CC[C@H]21`, the Ki (D(3) dopamine receptor [1]) was 3310 nM and the Ki (D(2) dopamine receptor) was over 10000 nM.

For `CCCN1CCO[C@@H]2c3cc4c(cc3CC[C@H]21)CCNC4=O`, the Ki (D(2) dopamine receptor) was 776 nM.

`CCCN1CCO[C@@H]2c3cc(C(=O)NCc4ccc(OC)cc4)ccc3CC[C@H]21` gave a Ki (D(3) dopamine receptor [1]) of over 10000 nM and a Ki (D(2) dopamine receptor) of 3390 nM.

With `CCCN(CCC)CCc1cccc2c1CC(=O)N2` [ROPINIROLE] the Ki (D(2) dopamine receptor) was 692 nM.

Compound `CCCN1CCO[C@@H]2c3cc(C(C)=O)ccc3CC[C@H]21` has a Ki (D(3) dopamine receptor [1]) of 95.5 nM, a Ratio Ki (Homo sapiens) of 32 and a Ki (D(2) dopamine receptor) of 3090 nM.

Compound `CCCN1CCO[C@@H]2c3cc4c(cc3CC[C@H]21)COC4=O` has a Ki (D(2) dopamine receptor) of 2040 nM.

`CCCN1CCO[C@@H]2c3cc(C(=O)Nc4ccc(OC)cc4)ccc3CC[C@H]21` gave a Ki (D(3) dopamine receptor [1]) of 2750 nM and a Ki (D(2) dopamine receptor) of over 10000 nM.

Compound `CCCN1CCOC2c3cc(C(N)=O)ccc3CCC21` (racemic) has a Ki (D(3) dopamine receptor [1]) of 19.5 nM, a Ratio Ki (Homo sapiens) of 40 and a Ki (D(2) dopamine receptor) of 759 nM.

`CCCN1CCO[C@@H]2c3cc4c(=O)[nH]ccc4cc3CC[C@H]21` was tested, and the Ki (D(2) dopamine receptor) was 1200 nM.

Work on `CCCN1CCO[C@@H]2c3cc(C(=O)OCC)ccc3CC[C@H]21` yielded a Ki (D(3) dopamine receptor [1]) of 2630 nM.

`CCCN1CCO[C@@H]2c3cc4c(cc3CC[C@H]21)CN(C)C4=O` gave a Ki (D(3) dopamine receptor [1]) of 2190 nM and a Ki (D(2) dopamine receptor) of over 10000 nM.

With `CCCN1CCO[C@@H]2c3cc(C(=O)N(C)C)ccc3CC[C@H]21` the Ki (D(3) dopamine receptor [1]) was over 10000 nM and the Ki (D(2) dopamine receptor) was 1860 nM.

For `CCCCNC(=O)c1ccc2c(c1)[C@H]1OCCN(CCC)[C@@H]1CC2`, the Ki (D(3) dopamine receptor [1]) was over 10000 nM and the Ki (D(2) dopamine receptor) was 4570 nM.

`CCCN1CCO[C@@H]2c3cc(C(=O)NC)ccc3CC[C@H]21` gave a Ki (D(3) dopamine receptor [1]) of over 10000 nM and a Ki (D(2) dopamine receptor) of 7940 nM.

`CCCN1CCO[C@@H]2c3cc(-c4nnn[nH]4)ccc3CC[C@H]21` gave a Ki (D(3) dopamine receptor [1]) of over 10000 nM and a Ki (D(2) dopamine receptor) of over 10000 nM.

In the case of `CCCN1CCO[C@@H]2c3cc(C#N)ccc3CC[C@H]21`, the Ki (D(3) dopamine receptor [1]) is reported as 39.8 nM, the Ratio Ki (Homo sapiens) is reported as 20 and the Ki (D(2) dopamine receptor) is reported as 794 nM.

`CCCN1CCO[C@@H]2c3cc(C(N)=O)ccc3CC[C@H]21` showed an EC50 (D(3) dopamine receptor [2]) of 2.29 nM, a Ki (D(3) dopamine receptor [1]) of 14.8 nM and a Ratio Ki (Homo sapiens) of 80. It also gave a Ki (D(2) dopamine receptor) of 1200 nM.
